Where two headings read alike, the source gives them in different places.

One data set has as its target T1, human sigma 1 receptor (Homo sapiens, UniProt Q99720).
T1 construct: expressed in transfected cells; host or cells: HEK-293
Put plainly: Human sigma 1 receptor radioligand assay ([3H](+)-pentazocine, transfected HEK-293 membranes). Conditions: 5 nM [3H](+)-pentazocine, transfected HEK-293 membranes, 37° C., 120 minutes; read-out: Ki. Format: binding. As to the method:
Human Sigma 1 Receptor Radioligand Assay
The assay was carried out with 7 μg of membrane suspension, 5 nM of [^3H](+)-pentazocine in either absence or presence of either buffer or 10 μM Haloperidol for total and non-specific binding, respectively. Binding buffer contained Tris-HCl 50 mM at pH 8. Plates were incubated at 37° C. for 120 minutes. After the incubation period, the reaction mix was then transferred to MultiScreen HTS, FC plates (Millipore), filtered and plates were washed 3 times with ice-cold 10 mM Tris-HCL (pH7.4). Filters were dried and counted at approximately 40% efficiency in a MicroBeta scintillation counter (Perkin-Elmer) using EcoScint liquid scintillation cocktail.

Another data set can be described thus: Kinetic solubility. Format: physicochemical. Particulars: kinetic from dmso stock, buffered aqueous solution at pH=7.4, 10 μL of 10 mM DMSO solution in 1 mL, stirred 4 hours, supernatant by liquid chromatography, read-out: Kin. Solub. As to the method:
To a buffered aqueous solution at pH=7.4 (1 mL), a 10 mM DMSO solution of the test compound (10 μL) was added and the mixture stirred for 4 hours. After centrifugation, the compound concentration in the supernatant was determined by liquid chromatography by fitting in a calibration curve of the compound.

Setting [1] is: buffered aqueous solution, pH 7.4, aqueous buffer.

T1 sequence (Q99720 whole entry): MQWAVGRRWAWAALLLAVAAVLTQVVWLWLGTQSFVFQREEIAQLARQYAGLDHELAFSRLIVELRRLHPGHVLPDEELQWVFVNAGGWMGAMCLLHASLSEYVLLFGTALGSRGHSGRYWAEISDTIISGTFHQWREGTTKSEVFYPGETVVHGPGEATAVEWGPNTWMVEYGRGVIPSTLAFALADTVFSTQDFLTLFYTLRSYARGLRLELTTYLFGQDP

Regarding `Cl.Clc1ccc(-c2nnn3c2CO[C@H]2CN(CCC4CCOCC4)C[C@@H]23)c(Cl)c1` [Example 53, (5aS,8aS)-3-(2,4-dichlorophenyl)-7-(2-(tetrahydro-2H-pyran-4-yl)ethyl)-4,5a,6,7,8,8a-hexahydropyrrolo[3,4-b][1,2,3]triazolo[1,5-d][1,4]oxazine hydrochloride], the Ki on human sigma 1 receptor worked out at 16.8 nM. Besides, in “Kinetic solubility” (setting [1]), the solubility at 4 h is greater than 10 µM.

For the molecule `Cl.Clc1ccc(-c2nnn3c2CO[C@@H]2CN(CCC4CCOCC4)C[C@H]23)c(Cl)c1` [Example 54, (5aR,8aR)-3-(2,4-dichlorophenyl)-7-(2-(tetrahydro-2H-pyran-4-yl)ethyl)-4,5a,6,7,8,8a-hexahydropyrrolo[3,4-b][1,2,3]triazolo[1,5-d][1,4]oxazine hydrochloride], the Ki at human sigma 1 receptor stood at 71.4 nM. In “Kinetic solubility” (setting [1]), the solubility at 4 h was greater than 10 µM.

`Cl.FC(F)(F)c1ccc(-c2nnn3c2CO[C@H]2CN(C4CCOCC4)C[C@@H]23)c(Cl)c1` [Example 55, (5aS,8aS)-3-(2-chloro-4-(trifluoromethyl)phenyl)-7-(tetrahydro-2H-pyran-4-yl)-4,5a,6,7,8,8a-hexahydropyrrolo[3,4-b][1,2,3]triazolo[1,5-d][1,4]oxazine hydrochloride]: the Ki at human sigma 1 receptor turned out to be 23.3 nM. The solubility at 4 h in the data set “Kinetic solubility” (aqueous buffer) is greater than 10 µM.

On to `Cl.Clc1ccc(-c2nnn3c2CO[C@H]2CN(C[C@@H]4CCOC4)C[C@@H]23)c(Cl)c1` [Example 56, (5aS,8aS)-3-(2,4-dichlorophenyl)-7-(((S)-tetrahydrofuran-3-yl)methyl)-4,5a,6,7,8,8a-hexahydropyrrolo[3,4-b][1,2,3]triazolo[1,5-d][1,4]oxazine hydrochloride], for which the Ki at human sigma 1 receptor stood at 22.7 nM. The solubility at 4 h in the data set “Kinetic solubility” (setting [1]) was greater than 10 µM.

Regarding `Cl.Clc1ccc(-c2nnn3c2CO[C@@H]2CN(C[C@H]4CCOC4)C[C@H]23)c(Cl)c1` [Example 57, (5aR,8aR)-3-(2,4-dichlorophenyl)-7-(((R)-tetrahydrofuran-3-yl)methyl)-4,5a,6,7,8,8a-hexahydropyrrolo[3,4-b][1,2,3]triazolo[1,5-d][1,4]oxazine hydrochloride], the inhibition constant (Ki) at human sigma 1 receptor turned out to be 195 nM. The solubility at 4 h in the data set “Kinetic solubility” (setting [1]) was greater than 10 µM.

In the case of `Cl.Clc1ccc(-c2nnn3c2CO[C@H]2CN(C[C@H]4CCOC4)C[C@@H]23)c(Cl)c1` [Example 58, (5aS,8aS)-3-(2,4-dichlorophenyl)-7-(((R)-tetrahydrofuran-3-yl)methyl)-4,5a,6,7,8,8a-hexahydropyrrolo[3,4-b][1,2,3]triazolo[1,5-d][1,4]oxazine hydrochloride], the Ki at human sigma 1 receptor came out at 25.4 nM. In “Kinetic solubility” (setting [1]), the solubility at 4 h was greater than 10 µM.

As for `Cl.Clc1ccc(-c2nnn3c2CO[C@@H]2CN(C[C@@H]4CCOC4)C[C@H]23)c(Cl)c1` [Example 59, (5aR,8aR)-3-(2,4-dichlorophenyl)-7-(((S)-tetrahydrofuran-3-yl)methyl)-4,5a,6,7,8,8a-hexahydropyrrolo[3,4-b][1,2,3]triazolo[1,5-d][1,4]oxazine hydrochloride], on human sigma 1 receptor, the Ki amounted to 181 nM. Further, the solubility at 4 h in “Kinetic solubility” (setting [1]) is greater than 10 µM.

Consider `Cc1occc1CN1C[C@@H]2[C@@H](C1)OCc1c(-c3ccc(F)cc3F)nnn12.Cl` [Example 60, (5aR,8aR)-3-(2,4-difluorophenyl)-7-((2-methylfuran-3-yl)methyl)-4,5a,6,7,8,8a-hexahydropyrrolo[3,4-b][1,2,3]triazolo[1,5-d][1,4]oxazine hydrochloride], for which the Ki at human sigma 1 receptor was found to be 102 nM. Moreover, in the data set “Kinetic solubility” (setting [1]), the solubility at 4 h was greater than 10 µM.

With `Cc1occc1CN1C[C@@H]2OCc3c(-c4ccc(F)cc4F)nnn3[C@H]2C1.Cl` [Example 61, (5aS,8aS)-3-(2,4-difluorophenyl)-7-((2-methylfuran-3-yl)methyl)-4,5a,6,7,8,8a-hexahydropyrrolo[3,4-b][1,2,3]triazolo[1,5-d][1,4]oxazine hydrochloride], the Ki at human sigma 1 receptor came out at 73.7 nM. For the same molecule, the solubility at 4 h in the data set “Kinetic solubility” (setting [1]) was greater than 10 µM.

With `Cl.Fc1ccc(-c2nnn3c2CO[C@H]2CN(Cc4ccoc4)C[C@@H]23)c(F)c1` [Example 62, (5aS,8aS)-3-(2,4-difluorophenyl)-7-(furan-3-ylmethyl)-4,5a,6,7,8,8a-hexahydropyrrolo[3,4-b][1,2,3]triazolo[1,5-d][1,4]oxazine hydrochloride], the Ki at human sigma 1 receptor stood at 39.2 nM. Further, the solubility at 4 h in the data set “Kinetic solubility” (setting [1]) is greater than 10 µM.

On to `Cl.Fc1ccc(-c2nnn3c2CO[C@@H]2CN(Cc4ccoc4)C[C@H]23)c(F)c1` [Example 63, (5aR,8aR)-3-(2,4-difluorophenyl)-7-(furan-3-ylmethyl)-4,5a,6,7,8,8a-hexahydropyrrolo[3,4-b][1,2,3]triazolo[1,5-d][1,4]oxazine hydrochloride], for which the Ki on human sigma 1 receptor worked out at 37.7 nM. In addition, the solubility at 4 h in “Kinetic solubility” (setting [1]) is greater than 10 µM.

Turning to `Cl.Cn1nccc1-c1nnn2c1CO[C@@H]1CN(Cc3ccc(F)cc3)C[C@H]12` [Example 66, (5aR,8aR)-7-(4-fluorobenzyl)-3-(1-methyl-1H-pyrazol-5-yl)-4,5a,6,7,8,8a-hexahydropyrrolo[3,4-b][1,2,3]triazolo[1,5-d][1,4]oxazine hydrochloride], the Ki at human sigma 1 receptor is 138 nM. In “Kinetic solubility” (aqueous buffer), the solubility at 4 h is greater than 10 µM.

Broadly, the Ki is a measure of affinity in units of concentration, obtained from inhibition or displacement.

The values above are taken from patent publication US9512142B2, “Tricyclic triazolic compounds” (LABORATORIOS DEL DR. ESTEVE S.A., priority 2013, dated 2016).
